Measurements published in patent US11572369B2, “Bicyclic pyridine compositions and methods of using the same for cancer therapy” (UNIVERSITY OF SOUTH CAROLINA, priority 2019, dated 2023).

How the values were obtained:
Assay in all cases: KINOMEscan
Format in all cases: binding
Conditions in all cases: 2000 nM
PKNB(M.tuberculosis) = biological target: T1, PKNB(M.tuberculosis) (Mycobacterium tuberculosis, UniProt P9WI81)
T1 construct: purchased DiscoveRx (KINOMEscan scanMAX panel)

p38-alpha = biological target: T2, p38-alpha (Homo sapiens, UniProt Q16539)
T2 construct: purchased DiscoverX (KINOMEscan service)

[1] = biological target: T3, RSK1(Kin.Dom.2-C-terminal) (Homo sapiens, UniProt Q15418)
T3 construct: RSK1(Kin.Dom.2); purchased DiscoveRx (KINOMEscan scanMAX panel)

TTK = biological target: T4, TTK (Homo sapiens, UniProt P33981)
T4 construct: DNA label (for qPCR read-out); purchased DiscoveRx (KINOMEscan scanMAX panel)

NLK = biological target: T5, NLK (Homo sapiens, UniProt Q9UBE8)
T5 construct: DNA label (qPCR read-out); purchased KINOMEscan (ScanMAX panel service)

CTK = biological target: T6, CTK (Homo sapiens, UniProt P42679)
T6 construct: DNA label; purchased DiscoveRx (KINOMEscan scanMAX panel)

EIF2AK1 = biological target: T7, EIF2AK1 (Homo sapiens, UniProt Q9BQI3)
T7 construct: purchased DiscoveRx (KINOMEscan scanMAX panel)

PDGFRB = biological target: T8, PDGFRB (Homo sapiens, UniProt P09619)
T8 construct: DNA label (for qPCR read-out); purchased DiscoveRx (KINOMEscan scanMAX service)

PAK7 = biological target: T9, PAK7 (Homo sapiens, UniProt Q9P286)
T9 construct: purchased DiscoverX (KINOMEscan service)

PIM3 = biological target: T10, PIM3 (Homo sapiens, UniProt Q86V86)
T10 construct: DNA label (qPCR read-out); purchased KINOMEscan (DiscoveRx) panel

CDKL5 = biological target: T11, CDKL5 (Homo sapiens, UniProt O76039)
T11 construct: DNA label (for qPCR read-out); purchased DiscoveRx (KINOMEscan scanMAX service)

FYN = biological target: T12, FYN (Homo sapiens, UniProt P06241)
T12 construct: purchased KINOMEscan (DiscoveRx)

MLK3 = biological target: T13, MLK3 (Homo sapiens, UniProt Q16584)
T13 construct: DNA label (qPCR read-out); purchased KINOMEscan scanMAX panel (DiscoveRx)

EPHA1 = biological target: T14, EPHA1 (Homo sapiens, UniProt P21709)
T14 construct: purchased DiscoveRx (KINOMEscan scanMAX panel)

TGFBR1 = biological target: T15, TGFBR1 (Homo sapiens, UniProt P36897)
T15 construct: DNA label (for qPCR read-out); purchased DiscoveRx (KINOMEscan scanMAX panel, contract assay)

DDR1 = biological target: T16, DDR1 (Homo sapiens, UniProt Q08345)
T16 construct: DNA label (qPCR read-out); purchased KINOMEscan (DiscoveRx) panel

MYO3A = biological target: T17, MYO3A (Homo sapiens, UniProt Q8NEV4)
T17 construct: DNA label (for qPCR read-out); purchased KINOMEscan scanMAX panel (DiscoveRx)

BUB1 = biological target: T18, BUB1 (Homo sapiens, UniProt O43683)
T18 construct: DNA label (for qPCR read-out); purchased KINOMEscan scanMAX panel (DiscoveRx)

EGFR(G719C) = biological target: T19, EGFR(G719C) (Homo sapiens, UniProt P00533, G719C)
T19 construct: purchased DiscoveRx (KINOMEscan scanMAX panel)

CDK4 = biological target: T20, CDK4 (Homo sapiens, UniProt P11802)
T20 construct: purchased DiscoverX (KINOMEscan service)

BLK = biological target: T21, BLK (Homo sapiens, UniProt P51451)
T21 construct: DNA label (for qPCR read-out); purchased KINOMEscan scanMAX panel (DiscoveRx)

DYRK1A = biological target: T22, DYRK1A (Homo sapiens, UniProt Q13627)
T22 construct: DNA label (qPCR read-out); purchased KINOMEscan (DiscoveRx) panel

ADCK3 = biological target: T23, ADCK3 (Homo sapiens, UniProt Q8NI60)
T23 construct: purchased DiscoveRx (KINOMEscan scanMAX panel, service)

MTOR = biological target: T24, MTOR (Homo sapiens, UniProt P42345)
T24 construct: DNA label (for qPCR read-out); purchased KINOMEscan scanMAX panel (DiscoveRx)

AAK1 = biological target: T25, AAK1 (Homo sapiens, UniProt Q2M2I8)
T25 construct: DNA label (qPCR read-out); purchased DiscoverX (KINOMEscan service)

ROCK1 = biological target: T26, ROCK1 (Homo sapiens, UniProt Q13464)
T26 construct: DNA label (qPCR read-out); purchased DiscoveRx (KINOMEscan ScanMAX panel)

LOK = biological target: T27, LOK (Homo sapiens, UniProt O94804)
T27 construct: purchased KINOMEscan (DiscoveRx) panel service

YANK3 = biological target: T28, YANK3 (Homo sapiens, UniProt Q86UX6)
T28 construct: purchased KINOMEscan (DiscoveRx) panel service

[2] = biological target: T29, RSK2(Kin.Dom.1-N-terminal) (Homo sapiens, UniProt P51812)
T29 construct: RSK2(Kin.Dom.1); purchased DiscoveRx (KINOMEscan scanMAX panel)

ULK2 = biological target: T30, ULK2 (Homo sapiens, UniProt Q8IYT8)
T30 construct: DNA label (for qPCR read-out); purchased DiscoveRx (KINOMEscan scanMAX panel)

GRK3 = biological target: T31, GRK3 (Homo sapiens, UniProt P35626)
T31 construct: DNA label (for qPCR read-out); purchased DiscoveRx (KINOMEscan scanMAX panel, contract assay)

FLT3(R834Q) = biological target: T32, FLT3(R834Q) (Homo sapiens, UniProt P36888, R834Q)
T32 construct: purchased KINOMEscan (DiscoveRx)

CASK = biological target: T33, CASK (Homo sapiens, UniProt O14936)
T33 construct: DNA label (qPCR read-out); purchased KINOMEscan (ScanMAX panel service)

ERK5 = biological target: T34, ERK5 (Homo sapiens, UniProt Q13164)
T34 construct: DNA label (qPCR read-out); purchased DiscoveRx (KINOMEscan ScanMAX panel)

PIK3CA(E545K) = biological target: T35, PIK3CA(E545K) (Homo sapiens, UniProt P42336, E545K)
T35 construct: DNA label; purchased DiscoveRx (KINOMEscan scanMAX panel)

T16 sequence (Q08345 19-913): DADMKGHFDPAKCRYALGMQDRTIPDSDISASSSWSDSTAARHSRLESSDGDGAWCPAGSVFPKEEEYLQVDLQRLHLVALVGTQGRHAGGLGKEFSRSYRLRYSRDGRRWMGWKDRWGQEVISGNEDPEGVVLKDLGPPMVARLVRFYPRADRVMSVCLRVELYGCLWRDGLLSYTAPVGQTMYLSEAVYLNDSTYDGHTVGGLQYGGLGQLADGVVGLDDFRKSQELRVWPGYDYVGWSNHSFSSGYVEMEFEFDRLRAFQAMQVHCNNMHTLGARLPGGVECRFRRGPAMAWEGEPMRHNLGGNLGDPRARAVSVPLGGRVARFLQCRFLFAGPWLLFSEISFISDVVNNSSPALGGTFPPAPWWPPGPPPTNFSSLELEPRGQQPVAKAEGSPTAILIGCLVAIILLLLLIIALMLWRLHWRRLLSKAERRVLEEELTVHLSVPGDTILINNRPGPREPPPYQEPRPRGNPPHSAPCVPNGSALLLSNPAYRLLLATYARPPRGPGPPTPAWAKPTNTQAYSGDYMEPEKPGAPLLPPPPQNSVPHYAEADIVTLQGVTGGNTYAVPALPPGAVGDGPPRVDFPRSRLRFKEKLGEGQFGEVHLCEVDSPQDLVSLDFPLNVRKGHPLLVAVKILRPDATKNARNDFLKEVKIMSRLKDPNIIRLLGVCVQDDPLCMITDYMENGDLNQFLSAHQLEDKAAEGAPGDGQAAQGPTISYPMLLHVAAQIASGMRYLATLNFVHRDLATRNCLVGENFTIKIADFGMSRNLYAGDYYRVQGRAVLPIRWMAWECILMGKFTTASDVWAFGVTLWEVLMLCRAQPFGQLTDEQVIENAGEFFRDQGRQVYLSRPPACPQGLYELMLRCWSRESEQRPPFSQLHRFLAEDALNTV
T9 sequence (Q9P286 whole entry): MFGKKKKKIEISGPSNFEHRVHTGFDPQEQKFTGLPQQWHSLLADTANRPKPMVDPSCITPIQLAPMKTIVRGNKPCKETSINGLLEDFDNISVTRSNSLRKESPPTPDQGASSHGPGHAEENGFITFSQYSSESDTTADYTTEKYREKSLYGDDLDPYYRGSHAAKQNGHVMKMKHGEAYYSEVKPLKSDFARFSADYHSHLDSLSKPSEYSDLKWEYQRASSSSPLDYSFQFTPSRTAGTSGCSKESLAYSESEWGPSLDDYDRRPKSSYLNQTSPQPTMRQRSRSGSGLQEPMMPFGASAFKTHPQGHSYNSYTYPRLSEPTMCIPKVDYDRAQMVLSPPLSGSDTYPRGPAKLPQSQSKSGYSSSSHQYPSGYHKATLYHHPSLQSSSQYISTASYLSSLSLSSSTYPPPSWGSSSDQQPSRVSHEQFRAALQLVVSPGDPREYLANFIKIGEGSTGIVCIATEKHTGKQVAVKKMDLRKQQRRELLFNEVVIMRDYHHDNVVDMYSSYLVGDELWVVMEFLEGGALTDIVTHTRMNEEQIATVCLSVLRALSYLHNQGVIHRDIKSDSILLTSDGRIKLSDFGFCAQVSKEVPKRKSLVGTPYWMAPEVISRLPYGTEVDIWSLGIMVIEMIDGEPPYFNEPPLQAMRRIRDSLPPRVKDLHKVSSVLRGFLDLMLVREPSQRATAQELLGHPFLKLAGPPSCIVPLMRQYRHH
T17 sequence (Q8NEV4 whole entry): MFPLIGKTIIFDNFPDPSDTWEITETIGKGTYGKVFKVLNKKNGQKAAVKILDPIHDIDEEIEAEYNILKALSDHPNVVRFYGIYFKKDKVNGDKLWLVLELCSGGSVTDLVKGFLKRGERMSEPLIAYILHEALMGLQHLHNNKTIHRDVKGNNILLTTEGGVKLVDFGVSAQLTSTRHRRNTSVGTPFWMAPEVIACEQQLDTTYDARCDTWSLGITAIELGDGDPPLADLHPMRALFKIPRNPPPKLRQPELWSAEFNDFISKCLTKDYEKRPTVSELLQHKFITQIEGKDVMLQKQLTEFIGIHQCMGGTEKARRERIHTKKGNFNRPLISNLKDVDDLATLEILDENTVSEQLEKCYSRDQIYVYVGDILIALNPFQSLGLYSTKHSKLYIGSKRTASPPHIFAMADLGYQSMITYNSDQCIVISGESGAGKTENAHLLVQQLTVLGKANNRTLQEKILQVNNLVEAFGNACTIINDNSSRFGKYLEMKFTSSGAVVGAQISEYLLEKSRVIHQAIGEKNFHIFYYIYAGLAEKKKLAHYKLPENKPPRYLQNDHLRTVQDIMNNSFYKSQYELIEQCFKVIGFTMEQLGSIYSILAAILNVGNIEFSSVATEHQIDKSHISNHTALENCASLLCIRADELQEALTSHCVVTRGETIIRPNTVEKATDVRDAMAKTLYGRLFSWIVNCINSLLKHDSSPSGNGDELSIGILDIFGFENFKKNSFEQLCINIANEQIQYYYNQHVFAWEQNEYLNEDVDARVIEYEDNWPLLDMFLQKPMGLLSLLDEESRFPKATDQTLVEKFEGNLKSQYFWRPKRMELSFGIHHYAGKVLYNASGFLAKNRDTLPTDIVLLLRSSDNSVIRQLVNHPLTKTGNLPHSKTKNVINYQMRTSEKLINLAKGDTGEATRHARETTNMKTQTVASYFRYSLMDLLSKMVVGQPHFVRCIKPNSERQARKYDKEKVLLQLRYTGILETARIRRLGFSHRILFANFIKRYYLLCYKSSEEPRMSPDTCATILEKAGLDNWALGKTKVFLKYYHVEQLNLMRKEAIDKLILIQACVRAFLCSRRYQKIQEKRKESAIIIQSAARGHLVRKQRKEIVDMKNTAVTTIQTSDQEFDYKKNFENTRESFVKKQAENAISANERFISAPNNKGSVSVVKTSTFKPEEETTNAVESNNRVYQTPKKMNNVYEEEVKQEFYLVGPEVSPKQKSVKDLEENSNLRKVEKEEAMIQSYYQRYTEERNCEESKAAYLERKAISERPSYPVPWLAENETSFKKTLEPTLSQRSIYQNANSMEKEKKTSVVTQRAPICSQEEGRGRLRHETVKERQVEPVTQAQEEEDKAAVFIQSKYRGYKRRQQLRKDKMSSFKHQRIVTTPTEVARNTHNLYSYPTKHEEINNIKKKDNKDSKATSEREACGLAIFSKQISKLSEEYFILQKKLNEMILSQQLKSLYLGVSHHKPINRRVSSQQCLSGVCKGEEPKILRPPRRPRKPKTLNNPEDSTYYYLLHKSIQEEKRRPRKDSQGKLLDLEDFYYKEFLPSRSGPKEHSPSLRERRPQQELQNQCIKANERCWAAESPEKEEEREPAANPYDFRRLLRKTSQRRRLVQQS
T21 sequence (P51451 whole entry): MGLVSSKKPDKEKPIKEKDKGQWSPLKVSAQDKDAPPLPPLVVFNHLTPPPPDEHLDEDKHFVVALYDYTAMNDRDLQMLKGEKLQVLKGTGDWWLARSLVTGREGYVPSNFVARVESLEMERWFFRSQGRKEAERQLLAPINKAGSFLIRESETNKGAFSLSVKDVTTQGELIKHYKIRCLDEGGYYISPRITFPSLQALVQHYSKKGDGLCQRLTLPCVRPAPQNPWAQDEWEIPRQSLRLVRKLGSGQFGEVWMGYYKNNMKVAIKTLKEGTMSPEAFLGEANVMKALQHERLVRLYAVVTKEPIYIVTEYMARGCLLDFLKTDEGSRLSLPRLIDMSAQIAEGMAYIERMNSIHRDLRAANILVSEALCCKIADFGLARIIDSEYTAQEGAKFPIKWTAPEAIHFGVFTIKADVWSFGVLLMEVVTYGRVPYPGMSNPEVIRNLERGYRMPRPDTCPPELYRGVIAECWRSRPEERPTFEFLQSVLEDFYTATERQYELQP
T4 sequence (P33981 whole entry): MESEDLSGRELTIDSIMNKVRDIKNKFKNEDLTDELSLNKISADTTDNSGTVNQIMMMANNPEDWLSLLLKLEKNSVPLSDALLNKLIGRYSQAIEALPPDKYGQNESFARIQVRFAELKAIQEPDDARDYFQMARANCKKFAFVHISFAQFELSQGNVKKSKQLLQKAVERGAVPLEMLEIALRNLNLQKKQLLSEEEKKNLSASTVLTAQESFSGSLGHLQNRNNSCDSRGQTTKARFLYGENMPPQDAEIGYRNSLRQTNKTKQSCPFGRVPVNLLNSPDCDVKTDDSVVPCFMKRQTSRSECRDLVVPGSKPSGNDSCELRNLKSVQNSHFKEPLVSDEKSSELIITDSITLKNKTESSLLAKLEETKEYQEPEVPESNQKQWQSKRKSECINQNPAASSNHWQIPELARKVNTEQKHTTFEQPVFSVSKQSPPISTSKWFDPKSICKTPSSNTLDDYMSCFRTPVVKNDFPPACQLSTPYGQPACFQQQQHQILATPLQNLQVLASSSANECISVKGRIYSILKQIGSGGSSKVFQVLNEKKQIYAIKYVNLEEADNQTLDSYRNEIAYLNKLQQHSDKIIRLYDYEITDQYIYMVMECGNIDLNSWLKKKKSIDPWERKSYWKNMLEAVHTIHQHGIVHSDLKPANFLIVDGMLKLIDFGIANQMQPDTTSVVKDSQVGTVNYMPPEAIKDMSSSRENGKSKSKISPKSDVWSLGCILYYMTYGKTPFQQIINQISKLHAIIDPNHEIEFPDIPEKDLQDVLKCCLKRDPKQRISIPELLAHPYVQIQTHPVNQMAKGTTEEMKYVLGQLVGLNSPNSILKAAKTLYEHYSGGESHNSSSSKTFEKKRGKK
T6 sequence (P42679 whole entry): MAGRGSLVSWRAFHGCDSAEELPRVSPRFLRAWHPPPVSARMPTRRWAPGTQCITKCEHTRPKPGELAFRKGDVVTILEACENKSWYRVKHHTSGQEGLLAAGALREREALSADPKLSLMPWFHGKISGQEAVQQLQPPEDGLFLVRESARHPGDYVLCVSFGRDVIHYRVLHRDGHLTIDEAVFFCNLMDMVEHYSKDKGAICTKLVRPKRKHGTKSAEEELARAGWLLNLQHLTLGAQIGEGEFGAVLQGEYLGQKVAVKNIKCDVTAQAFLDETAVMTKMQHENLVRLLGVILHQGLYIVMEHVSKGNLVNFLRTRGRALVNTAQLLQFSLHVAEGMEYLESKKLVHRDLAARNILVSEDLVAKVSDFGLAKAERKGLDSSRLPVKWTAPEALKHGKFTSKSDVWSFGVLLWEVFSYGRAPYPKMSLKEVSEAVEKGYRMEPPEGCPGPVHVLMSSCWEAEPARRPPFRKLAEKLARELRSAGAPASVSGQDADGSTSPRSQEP

Row | SMILES | % Ctrl (PKNB(M.tuberculosis)) [% Ctrl] | % Ctrl (p38-alpha) [% Ctrl] | % Ctrl [1] [% Ctrl] | % Ctrl (TTK) [% Ctrl] | % Ctrl (NLK) [% Ctrl] | % Ctrl (CTK) [% Ctrl] | % Ctrl (EIF2AK1) [% Ctrl] | % Ctrl (PDGFRB) [% Ctrl] | % Ctrl (PAK7) [% Ctrl] | % Ctrl (PIM3) [% Ctrl] | % Ctrl (CDKL5) [% Ctrl] | % Ctrl (FYN) [% Ctrl] | % Ctrl (MLK3) [% Ctrl] | % Ctrl (EPHA1) [% Ctrl] | % Ctrl (TGFBR1) [% Ctrl] | % Ctrl (DDR1) [% Ctrl] | % Ctrl (MYO3A) [% Ctrl] | % Ctrl (BUB1) [% Ctrl] | % Ctrl (EGFR(G719C)) [% Ctrl] | % Ctrl (CDK4) [% Ctrl] | other results
1 | CN(C)C(=O)c1ccc(N2CCCN(c3ccnc4sc(C(N)=O)c(N)c34)CC2)cc1 [15u, 3-amino-4-(4-(4-(dimethylcarbamoyl)phenyl)-1,4-diazepan-1-yl)thieno[2,3-b]pyridine-2-carboxamide] | 100 | 93 | 100 | 83 | 98 | 92 | 93 | 100 | 100 | 89 | 100 | 99 | 99 | 92 | 100 | 82 | 100 | 88 | 97 | 73 | % Ctrl (BLK): 100 % Ctrl; % Ctrl (DYRK1A): 50 % Ctrl; % Ctrl (ADCK3): 90 % Ctrl; % Ctrl (MTOR): 88 % Ctrl; % Ctrl (AAK1): 94 % Ctrl; % Ctrl (ROCK1): 77 % Ctrl; % Ctrl (LOK): 84 % Ctrl; % Ctrl (YANK3): 81 % Ctrl; % Ctrl [2]: 90 % Ctrl; % Ctrl (ULK2): 90 % Ctrl; % Ctrl (GRK3): 99 % Ctrl; % Ctrl (FLT3(R834Q)): 100 % Ctrl; % Ctrl (CASK): 71 % Ctrl; % Ctrl (ERK5): 59 % Ctrl; % Ctrl (PIK3CA(E545K)): 96 % Ctrl
2 | [2H]C([2H])([2H])N(C(=O)c1ccc(N2CCCN(c3ccnc4sc(C(N)=O)c(N)c34)CC2)cc1)C([2H])([2H])[2H] [15u_D6, 3-amino-4-(4-(4-(bis(methyl-d3)carbamoyl)phenyl)-1,4-diazepan-1-yl)thieno[2,3-b]pyridine-2-carboxamide] | 90 | 99 | 86 | 80 | 98 | 100 | 78 | 93 | 80 | 98 | 84 | 97 | 100 | 95 | 100 | 90 | 100 | 80 | 100 | 71 | % Ctrl (BLK): 92 % Ctrl; % Ctrl (DYRK1A): 22 % Ctrl; % Ctrl (ADCK3): 100 % Ctrl; % Ctrl (MTOR): 97 % Ctrl; % Ctrl (AAK1): 90 % Ctrl; % Ctrl (ROCK1): 67 % Ctrl; % Ctrl (LOK): 69 % Ctrl; % Ctrl (YANK3): 97 % Ctrl; % Ctrl [2]: 64 % Ctrl; % Ctrl (ULK2): 83 % Ctrl; % Ctrl (GRK3): 87 % Ctrl; % Ctrl (FLT3(R834Q)): 68 % Ctrl; % Ctrl (CASK): 96 % Ctrl; % Ctrl (ERK5): 98 % Ctrl; % Ctrl (PIK3CA(E545K)): 91 % Ctrl
